Reference: patent US20170209544A1, “A PEPTIDE THERAPY TO COUNTERACT INSULIN RESISTANCE AND TYPE 2 DIABETES” (The Regents of the University of California, priority 2014, published 2017)
Where no end group is shown, it is not given here.

Columns and labels:
[1] = test system: peritoneal macrophages; assay: qPCR of inflammatory genes in cultured peritoneal macrophages; type: cell-based, mice
Method: Peritoneal macrophages were isolated after thioglycollate (3% solution in water) stimulation as described. Isolated macrophages were cultured in DMEM with 10% FBS for 48 hours with daily medium changes. Cells were then serum-starved overnight in DMEM with low FBS (0.5%) and then exposed to saline, PST (100 nM), or LPS (100 ng/ml) for 4 hours. At the end of incubation, the cultures were subjected to RNA extraction.
RNA from tissues was extracted using a kit (RNeasy Plus, Qiagen, Valencia, Calif.). After DNase digestion, 200 ng of RNA was transcribed into cDNA in a 20-μl reaction using a High Capacity cDNA Archive kit and this cDNA was amplified. PCR (25-μl reactions) contained 5 μl of cDNA, 2×SYBR Green PCR Master Mix, and 400 nM of each primer. Differences in the threshold cycle number (ΔCt) between the target gene, the housekeeping gene Gapdh and the ribosomal protein gene 36B4 were used to calculate differences in expression. Primer sequences are provided below.
As shown in FIGS. 18A-18H, PST promotes macrophage inflammation and chemotaxis. Peritoneal macrophages were isolated from WT-NCD and KO-NCD after thioglycollate injection. After 4-hr exposure to saline, LPS (100 ng/ml) or PST (100 nM), RNAs were extracted and cDNAs were prepared for qPCR analyses of Chga (FIG. 18A, n=8), iNos (FIG. 18B, n=8), Tnfα (FIG. 18C, n=8), Mcp-1 (FIG. 18D, n=8), IL-6 (FIG. 18E, n=8), IL-12p40 (FIG. 18F, n=8) and iNos genes (FIG. 18G, n=8). (FIG. 18H) Effects of PST on chemotaxis of activated macrophages from NCD-fed C57BL/6J mice (n=5). “*” Denotes comparison between the indicated groups. “*”: P<0.05, “**”: p<0.01, “***”: p<0.001.

[2] = test system: peritoneal macrophages; assay: In vitro chemotaxis assay; type: cell-based, mice
Method: In vitro chemotaxis assays were performed as previously described. Briefly, thioglycollate-activated peritoneal macrophages were isolated from 8 week-old male C57BL/6J mice and pretreated with the indicated concentrations of PST for 2 hours at 37° C. in serum-free RPMI. For migration analysis, 200,000 peritoneal macrophages were placed in each of the upper chamber of a 4-μm polycarbonate filter (24-transwell format; Corning, Tewksbury, Mass.), whereas compounds resuspended in serum-free RPMI at the indicated concentrations were placed in the lower chamber. After 3 hours of migration at 37° C., cells were fixed in 4% paraformaldehyde, stained with DAPI and counted under the microscope.

[3] = test system: KO-NCD mice; assay: GTT in NCD-fed Chga-KO mice (acute and chronic); type: in vivo
Method: For glucose tolerance tests (GTT), glucose (1 mg/g) was injected intraperitoneally (IP-GTT) (at time zero) or gavaged orally (O-GTT) after a 12-hours fast. Tail-vein glucose levels were measured at −30, 0, 15, 30, 60, 90, and 120 minutes. For insulin tolerance tests (ITT), insulin (0.4 mU/g) was injected intraperitoneally and blood glucose levels were measured at the indicated time points. Chronic PST (5 μg/g/day) and PSTv1 (10 μg/day) treatments were carried out for 15 days. For acute treatment, either peptides or saline were injected 30 minutes before glucose or insulin injection. Synergy Software Kaleidagraph Version 4.0 calculated the area under the curve (AUC) for each line curve.
To determine acute effects, NCD fed Chga-KO mice (KO-NCD) were fasted for 12 hrs, treated with saline, PST (5 μg/g BW), PSTv1 (10 μg/g BW) or PST+PSTv1 for 30 min (−30 min) before injecting glucose (0 min) for (FIG. 14A) IP-GTT (2-way ANOVA: Treatment (Sal vs PST), p<0.0001, Time, p<0.0001; Interaction, p<0.002; Treatment (PST vs PSTv1), p<0.0001; Time, p<0.0001; Interaction, p<0.005; n=7). The corresponding AUC is shown in (FIG. 14B). […]

[4] = target: Bip/GRP78 (Mus musculus, UniProt P20029); assay: Pull down assay using biotinylated PST; type: binding
Source text: PST interacts with ER chaperone, GRP78/BiP. […] Moreover, PST inhibits GRP78's ATPase enzymatic activity, and impairs its biosynthetic response to UPR activation. PST as an inhibitor of ATPase activity augments expression of gluconeogenic gene and G6Pase. GRP78 over-expression antagonizes this PST action.

[5] = test system: Chga-KO mice; assay: Body weight of Chga-KO mice on NCD; type: in vivo; conditions: PST administration for 2 weeks
[6] = PST 100 nM, 4 hr, Chga-KO macrophages

Sequence of Bip/GRP78 (P20029 20-655): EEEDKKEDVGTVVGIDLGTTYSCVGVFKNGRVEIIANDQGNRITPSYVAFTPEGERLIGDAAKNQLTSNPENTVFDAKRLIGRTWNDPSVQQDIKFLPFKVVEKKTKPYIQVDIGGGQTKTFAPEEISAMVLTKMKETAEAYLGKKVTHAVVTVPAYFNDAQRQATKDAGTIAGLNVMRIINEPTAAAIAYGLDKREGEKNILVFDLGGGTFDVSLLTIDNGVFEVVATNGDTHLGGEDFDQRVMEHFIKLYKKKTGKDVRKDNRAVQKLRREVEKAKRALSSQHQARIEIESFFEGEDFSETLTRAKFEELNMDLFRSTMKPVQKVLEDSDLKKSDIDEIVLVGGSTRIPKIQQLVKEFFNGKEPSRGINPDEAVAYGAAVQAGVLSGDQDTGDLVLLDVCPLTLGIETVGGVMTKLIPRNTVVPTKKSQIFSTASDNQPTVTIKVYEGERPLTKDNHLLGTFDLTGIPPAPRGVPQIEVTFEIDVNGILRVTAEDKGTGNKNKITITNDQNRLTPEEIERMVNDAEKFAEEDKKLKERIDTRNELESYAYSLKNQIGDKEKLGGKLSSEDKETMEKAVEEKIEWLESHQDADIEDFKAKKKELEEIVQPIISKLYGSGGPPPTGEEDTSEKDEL

binding to ER chaperone Bip/GRP78 [4]: binds
Substance: PEGKGEQEHSQQKEEEEEMAVVPQGLFRG-amide (PEGKGEQEHSQQKEEEEEMAVVPQGLFRG-NH2) [PST, Wild-type human pancreastatin, a chromogranin A derived peptide]
expression of IL-6, IL-12p40 and iNos genes [1, 6]: had no effect
expression of Tnfα and Mcp-1 [1, 6]: increased
expression of Tnfα, Mcp-1, IL-6, IL-12p40 and iNos ([1]; macrophage cultures from WT and Chga-KO mice on NCD): increased
chemotaxis relative to Mcp-1 ([2]; 10 nM PST vs 10 nM Mcp-1): 44%
chemotaxis compared to saline-treated controls ([2]; peritoneal macrophage cultures): significantly higher levels of chemotaxis
blood glucose after acute PST treatment ([3]; acute, Chga-KO mice on normal chow diet): induces hyperglycemia
insulin sensitivity (GTT) ([3]; chronic PST 5 μg/g BW for 15 days, Chga-KO mice on NCD): induced insulin resistance
body weight [5]: did not change
